Reference: article PMC12444516, “Broad Substrate Specificity and High Catalytic Activity of Sphingomonadaceae PhoK-Type Phosphatases Implicated in Flame-Retardant Degradation” (ACS Omega, 2025)
Read-outs that look alike come from different tables or passages of the source.

Key:
[1] = system: T1, SmSRS2-PhoK; assay: UV/vis, p-nitrophenol release at […] nm, initial rates; assay type: biochemical, Sphingomonas sp. SRS2; conditions: 50 mM Ches pH 9.0; read-out: p-nitrophenyl phosphate (1) / K m
T1 construct: predicted Sec/SPI signal peptide; from a smaller PhoK cluster outside the main Sphingomonadaceae cluster

[2] = system: T2, Sb-PhoK; assay type: biochemical, Sphingobium sp. TCM1; conditions: read-out: p-nitrophenyl phosphate (1) / K m
T2 construct: predicted Sec/SPI signal peptide; ~2 Zn per protein

[3] = system: T3, St-PhoK; assay type: biochemical, Sphingopyxis terrae; conditions: read-out: p-nitrophenyl phosphate (1) / K m
T3 construct: predicted Sec/SPI signal peptide; also printed Sp-PhoK

[4] = system: T4, No-PhoK; assay type: biochemical, Novosphingobium sp. EMRT-2; conditions: read-out: p-nitrophenyl phosphate (1) / K m
T4 construct: predicted Sec/SPI signal peptide

[5] = system: T5, SmTDK1-PhoK; assay type: biochemical, Sphingomonas sp. TDK1; conditions: read-out: p-nitrophenyl phosphate (1) / K m
T5 construct: synthetic codon-optimised gene in pET29a with native stop codon, untagged; E. coli BL21(DE3); ammonium sulfate, Resource Q flow-through, S200; predicted Sec/SPI signal peptide

[6] = system: SmTDK1-PhoK; conditions: read-out: phenyl phosphate (2) / K m
[7] = system: St-PhoK; conditions: read-out: phenyl phosphate (2) / K m
[8] = system: T1, SmSRS2-PhoK; assay: UV/vis, phenol release at […] nm, initial rates; assay type: biochemical, Sphingomonas sp. SRS2; conditions: 50 mM Ches pH 9.0; read-out: phenyl phosphate (2) / K m
[9] = system: Sb-PhoK; conditions: read-out: phenyl phosphate (2) / K m
[10] = system: No-PhoK; conditions: read-out: phenyl phosphate (2) / K m
[11] = substrate: O=P(O)(O)Oc1ccccc1; assay: purified protein; assay type: biochemical, Sphingomonas sp.; conditions: 50 mM Ches pH 9.0
[12] = substrate: O=[N+]([O-])c1ccc(OP(=O)(O)O)cc1; assay: purified protein; conditions: 50 mM Ches pH 9.0

In the case of `O=[N+]([O-])c1ccc(OP(=O)(O)O)cc1` [compound 1, p-nitrophenyl phosphate], the Km [1] is reported as 88 ± 4 µM, the Km [2] is reported as 69 ± 2 µM and the Km [3] is reported as 78 ± 3 µM. The Km [4] was 153 ± 5 µM and the Km [5] was 450 ± 10 µM.

`O=P(O)(O)Oc1ccccc1` [compound 2, phenyl phosphate] showed a Km [6] of 600 ± 20 µM, a Km [7] of 81 ± 5 µM and a Km [8] of 104 ± 5 µM. The Km [9] was 650 ± 30 µM and the Km [10] was 300 ± 20 µM.

B1: Sm-PhoK (Sphingomonas sp.) (protein)
chain: QSPAPAAAPAPAARSIAATPPKLIVAISVDQFSADLFSEYRQYYTGGLKRLTSEGAVFPRGYQSHAATETCPGHSTILTGSRPSRTGIIANNWFDLDAKREDKNLYCAEDESQPGSSSDKYEASPLHLKVPTLGGRMKAANPATRVVSVAGKDRAAIMMGGATADQVWWLGGPQGYVSYKGVAPTPLVTQVNQAFAQRLAQPNPGFELPAQCVSKDFPVQAGNRTVGTGRFARDAGDYKGFRISPEQDAMTLAFAAAAIENMQLGKQAQTDIISIGLSATDYVGHTFGTEGTESCIQVDRLDTELGAFFDKLDKDGIDYVVVLTADHGGHDLPERHRMNAMPMEQRVDMALTPKALNATIAEKAGLPGKKVIWSDGPSGDIYYDKGLTAAQRARVETEALKYLRAHPQVQTVFTKAEIAATPSPSGPPESWSLIQEARASFYPSRSGDLLLLLKPRVMSIPEQAVMGSVATHGSPWDTDRRVPILFWRKGMQHFEQPLGVETVDILPSLAALIKLPVPKDQIDGRCLDLVAGKDDSCAGQ
notes: predicted Sec/SPI signal peptide; binuclear Zn site, nucleophile T89
B1 gave a Km [11] of 600 ± 20 µM, a kcat [11] of 1100 ± 10 s⁻¹ and a kcat/Km [11] of 1.84e+06 ± 60000 M⁻¹ s⁻¹. For the same molecule, the Km [12] was 174 ± 4 µM.
